Measurements taken from patent US20250369031A1, “METHODS OF DETERMINING CERULOPLASMIN ACTIVITY AND APPLICATIONS THEREOF” (ACADEMIA SINICA, priority 2022, published 2025).

Key:
Format in all cases: biochemical
ceruloplasmin [1] = target: T1, ceruloplasmin (Homo sapiens, UniProt P00450); test: Colorimetric methods for ceruloplasmin oxidative activity; parameters: Ceruloplasmin is made in the liver and then secreted into the blood; from tissue; host or cells: serum / plasma (normal adult, newborn; Cp-depleted serum by 100 kDa filtration as comparison); details: serum volume small than 10 μL
T1 sequence (P00450 20-1065): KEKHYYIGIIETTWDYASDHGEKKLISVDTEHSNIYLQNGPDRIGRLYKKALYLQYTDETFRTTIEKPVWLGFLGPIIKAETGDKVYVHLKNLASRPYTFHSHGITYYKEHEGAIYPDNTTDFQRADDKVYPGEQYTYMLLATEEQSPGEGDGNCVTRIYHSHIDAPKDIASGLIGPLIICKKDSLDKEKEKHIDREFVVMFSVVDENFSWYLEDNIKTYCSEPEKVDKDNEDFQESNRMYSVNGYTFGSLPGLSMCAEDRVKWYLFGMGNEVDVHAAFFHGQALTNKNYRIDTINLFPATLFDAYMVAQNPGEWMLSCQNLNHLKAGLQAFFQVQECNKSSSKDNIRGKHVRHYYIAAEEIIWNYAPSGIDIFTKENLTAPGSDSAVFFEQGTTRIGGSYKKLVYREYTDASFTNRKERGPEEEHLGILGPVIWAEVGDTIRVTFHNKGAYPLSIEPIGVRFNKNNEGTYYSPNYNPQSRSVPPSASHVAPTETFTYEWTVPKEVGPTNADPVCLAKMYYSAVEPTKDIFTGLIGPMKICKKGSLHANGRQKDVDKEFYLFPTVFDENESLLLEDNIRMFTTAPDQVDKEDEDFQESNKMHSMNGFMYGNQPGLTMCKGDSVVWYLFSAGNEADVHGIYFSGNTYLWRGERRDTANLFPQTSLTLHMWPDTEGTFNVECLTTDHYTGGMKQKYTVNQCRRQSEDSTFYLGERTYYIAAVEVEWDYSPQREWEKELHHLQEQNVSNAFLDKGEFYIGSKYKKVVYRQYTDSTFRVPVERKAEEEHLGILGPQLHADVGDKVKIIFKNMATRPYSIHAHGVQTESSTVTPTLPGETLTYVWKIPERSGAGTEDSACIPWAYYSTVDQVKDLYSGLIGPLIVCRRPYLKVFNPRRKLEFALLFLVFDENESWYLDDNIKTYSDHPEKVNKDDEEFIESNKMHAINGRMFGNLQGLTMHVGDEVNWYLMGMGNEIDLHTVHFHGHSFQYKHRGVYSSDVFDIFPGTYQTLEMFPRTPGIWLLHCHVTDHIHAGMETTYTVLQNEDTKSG
From the text: FIGS. 8A and 8B show the limitations of detection by current methods known in the art. […] The specific activity units of Cp are not reliable in lower volume of serum.
The limitations of current methods and available commercial kits were described. In current method, the colorimetric methods using p-phenylenediamine (PPD) and o-dianisidine dihydrochloride (ODD) as substrates are used for quantification of ceruloplasmin oxidative activity. […] The activity of ceruloplasmin were positively correlated to absorbance. However, the correlation of absorbance and serum volume small than 10 μL was poor (FIG. 8).

serum oxidases [2] = test: Library screening with serum, ESI-MS monitoring of oxidized products; details: acetate buffer pH 5.0, 37° C., 1 h
Method: The chemical library dissolved in DMSO individually to give stock concentrations of 1 mg/mL. Each chemical was placed in individual well and incubated with serum sample in acetate buffer (0.1M, pH 5.0) at 37° C. for 1 h. Additional DMSO was provided to inhibit oxidase activity. High-resolution ESI mass spectra (Bruker Daltonics spectrometer) was utilized to monitor the oxidized products.
To screen for suitable compounds as Cp substrates for MS analysis, an approach of combinatorial library screening in primary MS analysis was used to find out oxidized products and their relationship with initial substrates. Briefly, a platform for rapidly and conveniently screening various small molecules was established. In the chemical library collection as obtained, including natural products, synthetic compounds and heterocyclic molecules, each member was parallelly incubated with a certain small amount of serum for a desired reaction time. After quenching each enzyme reaction, analysis of the reaction products with ESI-MS was performed. Hits with reliable, major, and distinct oxidized product peaks in ESI-MS analysis were selected for further studies (FIG. 1).

ceruloplasmin [3] = target: T1, ceruloplasmin; test: Cp-depletion test (serum filtered to remove proteins larger than 100 kDa), LCMS; parameters: Ceruloplasmin is made in the liver and then secreted into the blood; from tissue; host or cells: serum / plasma (normal adult, newborn; Cp-depleted serum by 100 kDa filtration as comparison); details: Cp-depleted serum 5 μL, 30 min, 37° C.
Method: Normal adult serum and plasma were controls. After incubation, the DMSO quenched mixture were 100-folds diluted and detected by LCMS.
The Cp depletion serum was obtained by size selection method. Briefly, the centrifuge filter was applied in normal serum to eliminate those proteins larger than 100 kDa, including Cp (˜130 kDa).

ceruloplasmin [4] = target: T1, ceruloplasmin; test: Ceruloplasmin spike-in experiment in normal serum, LC-MS/MS
Method: To understand the relation between ceruloplasmin and serum oxidases and the reactivity of modified substrates and ceruloplasmin, spike-in experiment was performed. […] The assay was incubated at 37° C. for 30 mins, and quenching the reaction by DMSO. The final products were analyzed by LC-MS/MS.

ceruloplasmin [5] = target: T1, ceruloplasmin; test: Cp activity in newborn plasma, LCMS; parameters: Ceruloplasmin is made in the liver and then secreted into the blood; from tissue; host or cells: serum / plasma (normal adult, newborn; Cp-depleted serum by 100 kDa filtration as comparison); details: without dilution
From the text: The DMSO quenched mixture were detected by LCMS without dilution.

serum oxidases [6] = test: LC-MS/MS based serum oxidase activity assay
Method: Samples were detected by LC-ESI-MS on a Velos Pro dual-pressure linear ion trap mass spectrometer (Thermo Fisher Scientific, San Jose, CA) equipped with an Ultimate 3000 RSLC system from Dionex (Dionex Corporation, Sunnyvale, CA), using a Xbridge C18 (HPLC column 1 mm×15 cm i.d., 3.5 μm particle size, 130 Å pore size). Briefly, the gradient employed was 50% buffer B at 5 min to 98% buffer B at 23 min with a flow rate of 50 μL/min, where buffer A was 0.1% formic acid/H2O and buffer B was 0.1% formic acid/acetonitrile. All spectra were acquired in the mass range m/z 200-2000. Electrospray voltage was maintained at 4.0 kV and capillary temperature was set at 275° C.
The stock solution of modified amino carbazoles (125 μM, 20 μL) were incubated with 5 μL of serum (estimate<10 nM of serum oxidases) in sodium acetate buffer (0.1M, pH 5.0, 5 μL) at 37° C. for 30 min. The serum oxidase oxidation was quenched by DMSO (90 μL), followed detection of LC-MS/MS.
The amount of the oxidized product was determined according to the area under the peak by integration. The specific Cp activity unit was calculated by the formula: Peak area of oxidized product MS2 ion/serum volume (μL).
The addition of DMSO was to quench the serum enzyme activity. After centrifugation, the supernatant of the mixture was detected by LC-MS/MS.

COc1cc(-c2ccc(N)c(OC)c2)ccc1N.Cl.Cl [o-dianisidine dihydrochloride (ODD), o-dianisidine dihydrochloride]
correlation of absorbance and serum volume (ceruloplasmin [1]): poor

CCCCn1c2ccccc2c2cc(N)ccc21 [ACK-1001, 9-buyl-9H-carbazol-3-amine]
products generated when reacting with serum oxidases (serum oxidases [2]): specific oxidized products

Nc1ccc(N)cc1 [p-phenylenediamine (PPD), p-phenylenediamine]
correlation of absorbance and serum volume (ceruloplasmin [1]): poor

NCCc1c[nH]c2ccc(O)cc12 [ACK-1000, Serotonin (or 5-Hydroxytryptamine)]
products generated when reacting with serum oxidases (serum oxidases [2]): specific oxidized products

CCn1c2ccccc2c2cc(N)ccc21 [ACK-1006, 9-ethyl-9H-carbazol-3-amine]
oxidized product detected with Cp depleted serum (ceruloplasmin [3]): trace amount | oxidation of substrate by recombinant ceruloplasmin (ceruloplasmin [4]): could be oxidized by recombinant ceruloplasmin | LCMS signal of oxidized substrate in new born plasma (ceruloplasmin [5]; new born plasma 5 μL, 30 min, 37° C.): > 10^5 | signal of oxidative substrate in CP-depletion plasma compared with newborn plasma (ceruloplasmin [5]): significantly lower | signal intensity of m/z transition of the oxidized product (serum oxidases [6]; after 1000-fold dilution, serum less than 5 μL): > 10^3 | reaction time at which oxidized product reached highest amount (serum oxidases [6]; time-dependent assay): 30 min
